Reference: patent US20260131016A1, “NOVEL AURISTATIN ANALOGS AND IMMUNOCONJUGATES THEREOF” (ADCENTRX THERAPEUTICS INC., priority 2021, published 2026)

Experiments:
[1] = test system: HCC1954 breast ductal carcinoma; test: Cell viability (Cell Titer Glo 2.0) in HCC1954, 120 hours; format: cell-based; settings: for IC50: Homo sapiens, HCC1954, 120 h, read-out: IC50 (nM), in vitro potency in HCC1954
Method: (§1) HCC1954 breast ductal carcinoma and T47D cells (ATCC, Manassas, VA, USA) were seeded into 384-well white-walled culture plates and allowed to adhere for 2-4 hours. Cells were then treated at least in duplicate by addition of 5-fold serially diluted test articles prepared at 2× final concentration and incubated at 37° C. for 120 hours. Cell viability following treatment was determined by Cell Titer Glo 2.0 Assay (Promega, Madison, WI, USA) and normalized to non-treated controls. Dose-response relationships were analyzed using GraphPad Prism (La Jolla, CA, USA), and IC50 values were derived from non-linear regression analyses using a 4-parameter logistic equation.

[2] = test system: T47D cells; test: Cell viability (Cell Titer Glo 2.0) in T47D cells, 120 hours; format: cell-based
Method: as §1

[3] = N-methylated analogs 1,2-/1,3-/1,4-NH2, relative to the 1,3-NH2 analog (=1)
[4] = NCH3-amide compared to its NH-amide analog (=1)

Structure (SMILES)	potency compared to the 1,4-NH2 configuration of the P5 moiety in 19 and 26 ([1]; HCC1954 and T47D assays)	IC50 [1] [nM]	IC50 (fold difference) HCC1954 [1, 3] [fold difference]	IC50 (fold difference) T47D [2, 3] [fold difference]	IC50 (fold difference) HCC1954 [1, 4] [fold difference]	IC50 (fold difference) T47D [2, 4] [fold difference]
CC[C@H](C)[C@@H]([C@@H](CC(=O)N1CCC[C@H]1[C@H](OC)[C@@H](C)C(=O)N(C)CCc1ccccc1N)OC)N(C)C(=O)[C@@H](NC(=O)[C@H](C)N(C)C)C(C)C [Compound 16, (S)-N-((3R,4S,5S)-1-((S)-2-((1R,2R)-3-((2-aminophenethyl)(methyl)amino)-1-methoxy-2-methyl-3-oxopropyl)pyrrolidin-1-yl)-3-methoxy-5-methyl-1-oxoheptan-4-yl)-2-((S)-2-(dimethylamino)propanamido)-N,3-dimethylbutanamide]	more potent	< 5	1.8	3.4		
CC[C@H](C)[C@@H]([C@@H](CC(=O)N1CCC[C@H]1[C@H](OC)[C@@H](C)C(=O)N(C)CCc1ccc(N)cc1)OC)N(C)C(=O)[C@@H](NC(=O)[C@H](C(C)C)N(C)C)C(C)C [Compound 19, (S)-N-((3R,4S,5S)-1-((S)-2-((1R,2R)-3-((4-aminophenethyl)(methyl)amino)-1-methoxy-2-methyl-3-oxopropyl)pyrrolidin-1-yl)-3-methoxy-5-methyl-1-oxoheptan-4-yl)-2-((S)-2-(dimethylamino)-3-methylbutanamido)-N,3-dimethylbutanamide]		< 5	2.1	3.8	2.3	6.9
CC[C@H](C)[C@@H]([C@@H](CC(=O)N1CCC[C@H]1[C@H](OC)[C@@H](C)C(=O)NCCc1cccc(N)c1)OC)N(C)C(=O)[C@@H](NC(=O)[C@H](C(C)C)N(C)C)C(C)C [Compound 20, (S)-N-((3R,4S,5S)-1-((S)-2-((1R,2R)-3-((3-aminophenethyl)amino)-1-methoxy-2-methyl-3-oxopropyl)pyrrolidin-1-yl)-3-methoxy-5-methyl-1-oxoheptan-4-yl)-2-((S)-2-(dimethylamino)-3-methylbutanamido)-N,3-dimethylbutanamide]					1	1
CC[C@H](C)[C@@H]([C@@H](CC(=O)N1CCC[C@H]1[C@H](OC)[C@@H](C)C(=O)NCCc1ccccc1N)OC)N(C)C(=O)[C@@H](NC(=O)[C@H](C(C)C)N(C)C)C(C)C [Compound 21, (S)-N-((3R,4S,5S)-1-((S)-2-((1R,2R)-3-((2-aminophenethyl)amino)-1-methoxy-2-methyl-3-oxopropyl)pyrrolidin-1-yl)-3-methoxy-5-methyl-1-oxoheptan-4-yl)-2-((S)-2-(dimethylamino)-3-methylbutanamido)-N,3-dimethylbutanamide]					1	1
CC[C@H](C)[C@@H]([C@@H](CC(=O)N1CCC[C@H]1[C@H](OC)[C@@H](C)C(=O)NCCc1ccc(N)cc1)OC)N(C)C(=O)[C@@H](NC(=O)[C@H](C(C)C)N(C)C)C(C)C [Compound 22, (S)-N-((3R,4S,5S)-1-((S)-2-((1R,2R)-3-((4-aminophenethyl)amino)-1-methoxy-2-methyl-3-oxopropyl)pyrrolidin-1-yl)-3-methoxy-5-methyl-1-oxoheptan-4-yl)-2-((S)-2-(dimethylamino)-3-methylbutanamido)-N,3-dimethylbutanamide]					1	1
CC[C@H](C)[C@@H]([C@@H](CC(=O)N1CCC[C@H]1[C@H](OC)[C@@H](C)C(=O)N(C)CCc1ccc(N)cc1)OC)N(C)C(=O)[C@@H](NC(=O)[C@H](C)N(C)C)C(C)C [Compound 26, (S)-N-((3R,4S,5S)-1-((S)-2-((1R,2R)-3-((4-aminophenethyl)(methyl)amino)-1-methoxy-2-methyl-3-oxopropyl)pyrrolidin-1-yl)-3-methoxy-5-methyl-1-oxoheptan-4-yl)-2-((S)-2-(dimethylamino)propanamido)-N,3-dimethylbutanamide]		5 to 10	4.2	12.7		
